Reference: patent US20220144823A1, “PYRAZOLOPYRIDINE DERIVATIVES AS INHIBITORS OF PASK” (Galapagos NV, priority 2019, published 2022)

Test system: diabetic non human primates (NHPs) under a high-calorie diet (HCD)
Assay: Diabetic monkey model;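 also: male obese diabetic cynomolgus monkeys fed a high-fat, high-fructose diet, randomized into 4 groups, dosed with test compound for 8 weeks, then a 4-week washout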
Conditions: for Oral glucose tolerance test (glucose AUC): fasted animals; for Hepatic echogenicity (H/R ratio): Hepatic (right lobe)/Renal cortex (right kidney) ratio, ultrasound
[1] = week 1, treatment, metformin 25 mg/kg b.i.d., Cpd 18 30 mg/kg q.d., p.o.
[2] = week 2, treatment, metformin 25 mg/kg b.i.d., Cpd 18 30 mg/kg q.d., p.o.
[3] = week 3, treatment, metformin 25 mg/kg b.i.d., Cpd 18 30 mg/kg q.d., p.o.
[4] = week 4, treatment, metformin 25 mg/kg b.i.d., Cpd 18 30 mg/kg q.d., p.o.
[5] = week 9, washout without treatment
[6] = week 10, washout without treatment
[7] = week 11, washout without treatment
[8] = week 12, washout without treatment

Protocol: The aim of this assay is to determine the effect of a test compound on lipid metabolism and glucose handling in diabetic non human primates (NHPs) under a high-calorie diet (HCD) consisting of high-fat and high-fructose.
Male obese diabetic cynomolgus monkeys were selected based on their body weights, glucose, insulin levels, and blood lipid parameters. The inclusion criteria were the following: age ≤22 years; fasted plasma glucose between 120 and 300 mg/dL; triglycerides >125 mg/dL, and insulin >75 mIU/mL.
The animals are maintained at 20-23° C. and 40-70% humidity on a 12 h light/dark cycle (7 AM-7 PM). Water is provided ad libitum and the animals are fed twice daily with the high-calorie diet (HCD) enriched with seasonal fruits or vegetables.
After the baseline period, animals were randomized into 4 groups according to body weight, as well as their blood glucose and lipid parameters.
The following parameters were measured once per week during the 8 weeks of treatment and also during the 4 weeks of washout: • body weight • food consumption • blood chemistry (fasted blood glucose, plasma triglycerides, plasma total cholesterol, low density lipoproteins (LDL), and high density lipoproteins (HDL))
Oral glucose tolerance was measured in fasted animals before treatment initiation (baseline), at the end of the treatment period (week 8), and after 4 weeks of washout (week 12).

Cc1nn(C(C)C)c(C)c1-c1cnn2ccc(-c3cc(C(=O)O)co3)cc12 [Cpd 18, 5-[3-(1-isopropyl-3,5-dimethyl-pyrazol-4-yl)pyrazolo[1,5-a]pyridin-5-yl]furan-3-carboxylic acid]
HDL change (% change from baseline) (Group 2, week 1, treatment): 14.1%
LDL change (% change from baseline) (Group 2, week 1, treatment): 52.8%
Total cholesterol change (% change from baseline) (Group 2, week 1, treatment): 48.2 % change from baseline
Triglyceride change (% change from baseline) (Group 2, week 1, treatment): −33.3 % change from baseline
HDL change (% change from baseline) (Group 2, week 2, treatment): 8.4%
LDL change (% change from baseline) (Group 2, week 2, treatment): 38.3%
Total cholesterol change (% change from baseline) (Group 2, week 2, treatment): 33.8 % change from baseline
Triglyceride change (% change from baseline) (Group 2, week 2, treatment): −31.2 % change from baseline
HDL change (% change from baseline) (Group 2, week 3, treatment): 6.2%
LDL change (% change from baseline) (Group 2, week 3, treatment): 16.6%
Total cholesterol change (% change from baseline) (Group 2, week 3, treatment): 18.6 % change from baseline
Triglyceride change (% change from baseline) (Group 2, week 3, treatment): −36.7 % change from baseline
HDL change (% change from baseline) (Group 2, week 4, treatment): −4.3%
LDL change (% change from baseline) (Group 2, week 4, treatment): 31.0%
Total cholesterol change (% change from baseline) (Group 2, week 4, treatment): 28.0 % change from baseline
Triglyceride change (% change from baseline) (Group 2, week 4, treatment): −44.2 % change from baseline
HDL change (% change from baseline) (Group 2, week 5, treatment): 4.2%
LDL change (% change from baseline) (Group 2, week 5, treatment): 5.1%
Total cholesterol change (% change from baseline) (Group 2, week 5, treatment): 3.2 % change from baseline
Triglyceride change (% change from baseline) (Group 2, week 5, treatment): −62.6 % change from baseline
HDL change (% change from baseline) (Group 2, week 6, treatment): 11.7%
LDL change (% change from baseline) (Group 2, week 6, treatment): −10.5%
Total cholesterol change (% change from baseline) (Group 2, week 6, treatment): −6.7 % change from baseline
Triglyceride change (% change from baseline) (Group 2, week 6, treatment): −59.6 % change from baseline
HDL change (% change from baseline) (Group 2, week 7, treatment): 13.0%
LDL change (% change from baseline) (Group 2, week 7, treatment): −17.2%
Total cholesterol change (% change from baseline) (Group 2, week 7, treatment): −12.0 % change from baseline
Triglyceride change (% change from baseline) (Group 2, week 7, treatment): −55.9 % change from baseline
HDL change (% change from baseline) (Group 2, week 8, treatment): 12.4%
LDL change (% change from baseline) (Group 2, week 8, treatment): −10.5%
Total cholesterol change (% change from baseline) (Group 2, week 8, treatment): −5.1 % change from baseline
Triglyceride change (% change from baseline) (Group 2, week 8, treatment): −39.3 % change from baseline
HDL change (% change from baseline) (Group 2, week 9, washout): 13.5%
LDL change (% change from baseline) (Group 2, week 9, washout): −1.6%
Total cholesterol change (% change from baseline) (Group 2, week 9, washout): 5.8 % change from baseline
Triglyceride change (% change from baseline) (Group 2, week 9, washout): −33.4 % change from baseline
HDL change (% change from baseline) (Group 2, week 10, washout): 22.7%
LDL change (% change from baseline) (Group 2, week 10, washout): 38.6%
Total cholesterol change (% change from baseline) (Group 2, week 10, washout): 42.4 % change from baseline
Triglyceride change (% change from baseline) (Group 2, week 10, washout): 9.8 % change from baseline
HDL change (% change from baseline) (Group 2, week 11, washout): 21.2%
LDL change (% change from baseline) (Group 2, week 11, washout): 81.5%
Total cholesterol change (% change from baseline) (Group 2, week 11, washout): 83.8 % change from baseline
Triglyceride change (% change from baseline) (Group 2, week 11, washout): 49.7 % change from baseline
HDL change (% change from baseline) (Group 2, week 12, washout): 24.9%
LDL change (% change from baseline) (Group 2, week 12, washout): 118.6%
Total cholesterol change (% change from baseline) (Group 2, week 12, washout): 115.8 % change from baseline
Triglyceride change (% change from baseline) (Group 2, week 12, washout): 32.2 % change from baseline
HDL change (% change from baseline) (Group 3, week 1, treatment): 18.6%
LDL change (% change from baseline) (Group 3, week 1, treatment): 60.5%
Total cholesterol change (% change from baseline) (Group 3, week 1, treatment): 46.1 % change from baseline
Triglyceride change (% change from baseline) (Group 3, week 1, treatment): −20.2 % change from baseline
HDL change (% change from baseline) (Group 3, week 2, treatment): 3.7%
LDL change (% change from baseline) (Group 3, week 2, treatment): 58.3%
Total cholesterol change (% change from baseline) (Group 3, week 2, treatment): 41.5 % change from baseline
Triglyceride change (% change from baseline) (Group 3, week 2, treatment): −56.1 % change from baseline
HDL change (% change from baseline) (Group 3, week 3, treatment): 7.7%
LDL change (% change from baseline) (Group 3, week 3, treatment): 35.1%
Total cholesterol change (% change from baseline) (Group 3, week 3, treatment): 22.3 % change from baseline
Triglyceride change (% change from baseline) (Group 3, week 3, treatment): −41.6 % change from baseline
HDL change (% change from baseline) (Group 3, week 4, treatment): −12.0%
LDL change (% change from baseline) (Group 3, week 4, treatment): −28.7%
Total cholesterol change (% change from baseline) (Group 3, week 4, treatment): −22.3 % change from baseline
Triglyceride change (% change from baseline) (Group 3, week 4, treatment): −44.5 % change from baseline
HDL change (% change from baseline) (Group 3, week 5, treatment): 1.0%
LDL change (% change from baseline) (Group 3, week 5, treatment): −27.5%
Total cholesterol change (% change from baseline) (Group 3, week 5, treatment): −21.0 % change from baseline
Triglyceride change (% change from baseline) (Group 3, week 5, treatment): −44.4 % change from baseline
HDL change (% change from baseline) (Group 3, week 6, treatment): 9.5%
LDL change (% change from baseline) (Group 3, week 6, treatment): −33.2%
Total cholesterol change (% change from baseline) (Group 3, week 6, treatment): −26.5 % change from baseline
Triglyceride change (% change from baseline) (Group 3, week 6, treatment): −46.2 % change from baseline
HDL change (% change from baseline) (Group 3, week 7, treatment): 8.3%
LDL change (% change from baseline) (Group 3, week 7, treatment): −39.4%
Total cholesterol change (% change from baseline) (Group 3, week 7, treatment): −30.5 % change from baseline
Triglyceride change (% change from baseline) (Group 3, week 7, treatment): −35.0 % change from baseline
HDL change (% change from baseline) (Group 3, week 8, treatment): −0.9%
LDL change (% change from baseline) (Group 3, week 8, treatment): −27.9%
Total cholesterol change (% change from baseline) (Group 3, week 8, treatment): −20.4 % change from baseline
Triglyceride change (% change from baseline) (Group 3, week 8, treatment): −37.4 % change from baseline
HDL change (% change from baseline) (Group 3, week 9, washout): 1.5%
LDL change (% change from baseline) (Group 3, week 9, washout): −41.8%
Total cholesterol change (% change from baseline) (Group 3, week 9, washout): −31.5 % change from baseline
Triglyceride change (% change from baseline) (Group 3, week 9, washout): −49.3 % change from baseline
HDL change (% change from baseline) (Group 3, week 10, washout): 8.0%
LDL change (% change from baseline) (Group 3, week 10, washout): −13.5%
Total cholesterol change (% change from baseline) (Group 3, week 10, washout): −8.2 % change from baseline
Triglyceride change (% change from baseline) (Group 3, week 10, washout): −45.9 % change from baseline
HDL change (% change from baseline) (Group 3, week 11, washout): 21.9%
LDL change (% change from baseline) (Group 3, week 11, washout): 10.2%
Total cholesterol change (% change from baseline) (Group 3, week 11, washout): 15.5 % change from baseline
Triglyceride change (% change from baseline) (Group 3, week 11, washout): −19.9 % change from baseline
HDL change (% change from baseline) (Group 3, week 12, washout): 23.9%
LDL change (% change from baseline) (Group 3, week 12, washout): 46.2%
Total cholesterol change (% change from baseline) (Group 3, week 12, washout): 48.7 % change from baseline
Triglyceride change (% change from baseline) (Group 3, week 12, washout): 18.8 % change from baseline
HDL change (% change from baseline) (Group 4, week 1, treatment): 2.1%
LDL change (% change from baseline) (Group 4, week 1, treatment): 67.1%
Total cholesterol change (% change from baseline) (Group 4, week 1, treatment): 50.9 % change from baseline
Triglyceride change (% change from baseline) (Group 4, week 1, treatment): −31.7 % change from baseline
HDL change (% change from baseline) (Group 4, week 2, treatment): −13.1%
LDL change (% change from baseline) (Group 4, week 2, treatment): 46.7%
Total cholesterol change (% change from baseline) (Group 4, week 2, treatment): 30.3 % change from baseline
Triglyceride change (% change from baseline) (Group 4, week 2, treatment): −30.0 % change from baseline
HDL change (% change from baseline) (Group 4, week 3, treatment): −14.9%
LDL change (% change from baseline) (Group 4, week 3, treatment): 33.6%
Total cholesterol change (% change from baseline) (Group 4, week 3, treatment): 20.9 % change from baseline
Triglyceride change (% change from baseline) (Group 4, week 3, treatment): −28.2 % change from baseline
HDL change (% change from baseline) (Group 4, week 4, treatment): −16.0%
LDL change (% change from baseline) (Group 4, week 4, treatment): −21.9%
Total cholesterol change (% change from baseline) (Group 4, week 4, treatment): −22.6 % change from baseline
Triglyceride change (% change from baseline) (Group 4, week 4, treatment): −48.3 % change from baseline
HDL change (% change from baseline) (Group 4, week 5, treatment): −6.9%
LDL change (% change from baseline) (Group 4, week 5, treatment): 0.0%
Total cholesterol change (% change from baseline) (Group 4, week 5, treatment): −7.8 % change from baseline
Triglyceride change (% change from baseline) (Group 4, week 5, treatment): −52.3 % change from baseline
HDL change (% change from baseline) (Group 4, week 6, treatment): 0.3%
LDL change (% change from baseline) (Group 4, week 6, treatment): 2.1%
Total cholesterol change (% change from baseline) (Group 4, week 6, treatment): −2.6 % change from baseline
Triglyceride change (% change from baseline) (Group 4, week 6, treatment): −50.8 % change from baseline
HDL change (% change from baseline) (Group 4, week 7, treatment): 0.9%
LDL change (% change from baseline) (Group 4, week 7, treatment): −38.5%
Total cholesterol change (% change from baseline) (Group 4, week 7, treatment): −32.9 % change from baseline
Triglyceride change (% change from baseline) (Group 4, week 7, treatment): −63.2 % change from baseline
HDL change (% change from baseline) (Group 4, week 8, treatment): 8.7%
LDL change (% change from baseline) (Group 4, week 8, treatment): −32.5%
Total cholesterol change (% change from baseline) (Group 4, week 8, treatment): −26.1 % change from baseline
Triglyceride change (% change from baseline) (Group 4, week 8, treatment): −56.1 % change from baseline
HDL change (% change from baseline) (Group 4, week 9, washout): 18.9%
LDL change (% change from baseline) (Group 4, week 9, washout): −20.0%
Total cholesterol change (% change from baseline) (Group 4, week 9, washout): −15.5 % change from baseline
Triglyceride change (% change from baseline) (Group 4, week 9, washout): −60.2 % change from baseline
HDL change (% change from baseline) (Group 4, week 10, washout): 6.0%
LDL change (% change from baseline) (Group 4, week 10, washout): 29.3%
Total cholesterol change (% change from baseline) (Group 4, week 10, washout): 10.9 % change from baseline
Triglyceride change (% change from baseline) (Group 4, week 10, washout): −58.1 % change from baseline
HDL change (% change from baseline) (Group 4, week 11, washout): 11.0%
LDL change (% change from baseline) (Group 4, week 11, washout): 45.1%
Total cholesterol change (% change from baseline) (Group 4, week 11, washout): 28.5 % change from baseline
Triglyceride change (% change from baseline) (Group 4, week 11, washout): −41.4 % change from baseline
HDL change (% change from baseline) (Group 4, week 12, washout): 12.0%
LDL change (% change from baseline) (Group 4, week 12, washout): 87.5%
Total cholesterol change (% change from baseline) (Group 4, week 12, washout): 58.3 % change from baseline
Triglyceride change (% change from baseline) (Group 4, week 12, washout): −65.4 % change from baseline
Oral glucose tolerance test (glucose AUC) (week 0, baseline (before treatment initiation)): 2371 mmol·min/L
Bodyweight change (% change from baseline) [1]: 0.4%
HbA1c change (% change from baseline) [1]: −6.3%
Bodyweight change (% change from baseline) [2]: −1.9%
HbA1c change (% change from baseline) [2]: −9.4%
Bodyweight change (% change from baseline) [3]: −3.8%
HbA1c change (% change from baseline) [3]: −17.2%
Bodyweight change (% change from baseline) [4]: −5.6%
HbA1c change (% change from baseline) [4]: −24.1%
Oral glucose tolerance test (glucose AUC) (week 8, end of treatment period): 2307 mmol·min/L
Bodyweight change (% change from baseline) [5]: −13.6%
HbA1c change (% change from baseline) [5]: −30.7%
Hepatic echogenicity (H/R ratio) (week 9, washout): 1.03
Bodyweight change (% change from baseline) [6]: −14.5%
HbA1c change (% change from baseline) [6]: −25.6%
Bodyweight change (% change from baseline) [7]: −14.3%
HbA1c change (% change from baseline) [7]: −21.3%
Oral glucose tolerance test (glucose AUC) (week 12, after 4 weeks of washout): 2291 mmol·min/L
Bodyweight change (% change from baseline) [8]: −14.8%
HbA1c change (% change from baseline) [8]: −27.9%
Hepatic echogenicity (H/R ratio) (week −3, baseline): 1.13
